Measurements: patent publication US9453014B2, “Cyclic amide derivatives as inhibitors of 11-β-hydroxysteroid dehydrogenase and uses thereof” (CONNEXIOS LIFE SCIENCES PVT. LTD., priority 2011, dated 2016)

The compounds below were run against T1, human full length HSD11 β 1 (Homo sapiens, UniProt P28845) (assay: In Vitro HSD11β1 Inhibition Assay). Conditions: CHO cells transiently expressing human HSD11β1; 200 nM cortisone+500 uM NADPH overnight; cortisone to cortisol by LC/MS-MS; read-out: 11βHSD1 (IC50).
T1 construct: transient expression of human full length HSD11 β 1 expression vector; host or cells: CHO cells (transient transfection)
Format: cell-based
Protocol: In Vitro HSD11β1 Inhibition Assay:
CHO cells were maintained in Dulbecco's modified Eagle's medium/nutrient mixture F-12 containing 5% fetal bovine serum (v/v) and 2 mM glutamine. Cells were cultured at 37° C. with 5% CO2. For transient expression of human full length HSD11 β 1 expression vector (OriGene Technologies), cells were seeded at a density of 2×10^5 cells/well in a 6-well plate. Transfection was done using Turbofectin8 reagent (OriGene Technologies), according to the protocol provided with the reagent. After 24 hours post-transfection, cells were trypsinized and pooled together before they were re-seeding to 96-well plate at a density of 40000 cells/well. 24 hours after re-seeding, cells were incubated with 200 nM cortisone+500 uM NADPH (or along with small molecule inhibitors) overnight. The enzymatic activity or inhibition of enzyme activity was measured by estimating the conversion of cortisone to cortisol by LC/MS-MS method. The IC50 in nM was calculated from an 8 point log scale of concentration versus inhibition.

T1 sequence (P28845 whole entry): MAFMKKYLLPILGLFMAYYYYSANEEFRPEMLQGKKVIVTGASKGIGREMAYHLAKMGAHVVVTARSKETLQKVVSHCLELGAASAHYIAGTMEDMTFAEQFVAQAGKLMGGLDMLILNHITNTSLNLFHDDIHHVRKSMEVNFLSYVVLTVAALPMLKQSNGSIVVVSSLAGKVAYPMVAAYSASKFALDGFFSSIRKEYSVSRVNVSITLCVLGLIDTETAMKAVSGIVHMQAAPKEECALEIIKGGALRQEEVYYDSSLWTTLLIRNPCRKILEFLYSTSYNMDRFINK

`CC(C)C(CC(=O)N1CCCC2CCCCC21)c1c[nH]c2ccccc12` (single isomer, unassigned) [Example 117, 3-(1H-indol-3-yl)-4-methyl-1-(octahydroquinolin-1(2H)-yl)pentan-1-one] and `CC(CC(=O)N1CCCC2CCCCC21)c1c[nH]c2ccccc12` (single isomer, unassigned) [Example 119, 3-(1H-indol-3-yl)-1-(octahydroquinolin-1(2H)-yl)butan-1-one] cannot be ordered by IC50: under 100 nM for the first, under 100 nM for the second.

`CC(C)C(CC(=O)N1CCCC2CCCCC21)c1c[nH]c2ccccc12` (single isomer, unassigned) [Example 118, 3-(1H-indol-3-yl)-4-methyl-1-(octahydroquinolin-1(2H)-yl)pentan-1-one] and `CC(CC(=O)N1CCCC2CCCCC21)c1c[nH]c2ccccc12` (single isomer, unassigned) [Example 120, 3-(1H-indol-3-yl)-1-(octahydroquinolin-1(2H)-yl)butan-1-one] cannot be ordered by IC50: under 100 nM for the first, under 100 nM for the second.

Compared with `CC(CC(=O)N1CCCC2CCCCC21)c1c[nH]c2cccc(F)c12` (single isomer, unassigned) [Example 122, 3-(4-fluoro-1H-indol-3-yl)-1-(octahydroquinolin-1(2H)-yl)butan-1-one], `CC(CC(=O)N1CCOC2CCCCC21)c1c[nH]c2cccc(F)c12` (single isomer, unassigned) [Example 137, 3-(4-fluoro-1H-indol-3-yl)-1-(octahydro-4H-1,4-benzoxazin-4-yl)butan-1-one] is higher in IC50: under 100 nM for the first, 100 to 150 nM for the second.

First: CC(CC(=O)N1CCCC2CCCCC21)c1c[nH]c2cccc(F)c12 (single isomer, unassigned) [Example 123, 3-(4-fluoro-1H-indol-3-yl)-1-(octahydroquinolin-1(2H)-yl)butan-1-one]
Second: CC(CC(=O)N1CCOC2CCCCC21)c1c[nH]c2cccc(F)c12 (single isomer, unassigned) [Example 138, 3-(4-fluoro-1H-indol-3-yl)-1-(octahydro-4H-1,4-benzoxazin-4-yl)butan-1-one]
The IC50 of the first is lower: under 100 nM for the first, 150 to 200 nM for the second. The first is the more potent here.

First: CC(CC(=O)N1CCCC2CCCCC21)c1c[nH]c2ccccc12 (single isomer, unassigned) [Example 124, 3-(1H-indol-3-yl)-1-(octahydroquinolin-1(2H)-yl)butan-1-one]
Second: O=C(Cc1c[nH]c2ccccc12)N1CCCC2CCCCC21 (centres unmarked) [Compound 9, 2-(1H-indol-3-yl)-1-(octahydroquinolin-1(2H)-yl)ethanone]
The IC50 of the first is lower: 100 to 150 nM for the first, 200 to 250 nM for the second. The first is the more potent here.

First: CC(CC(=O)N1CCCC2CCCCC21)c1c[nH]c2ccccc12 (single isomer, unassigned) [Example 125, 3-(1H-indol-3-yl)-1-(octahydroquinolin-1(2H)-yl)butan-1-one]
Second: CC(CC(=O)N1CCCC2CCCCC21)c1c[nH]c2ncccc12 (single isomer, unassigned) [Example 144, 1-(octahydroquinolin-1(2H)-yl)-3-(1H-pyrrolo[2,3-b]pyridin-3-yl)butan-1-one]
The IC50 of the first is lower: under 100 nM for the first, over 250 nM for the second. The first is the more potent here.

First: CC(CC(=O)N1CCO[C@H]2CCCCC21)c1c[nH]c2cccc(F)c12 (single isomer, unassigned) [Example 139, 3-(4-fluoro-1H-indol-3-yl)-1-[cis-(4a,8a)-octahydro-4H-1,4-benzoxazin-4-yl]butan-1-one]
Second: CC(CC(=O)N1CCCC2CCCCC21)c1c[nH]c2ccccc12 (centres unmarked) [Compound 1, 3-(1H-indol-3-yl)-1-(octahydroquinolin-1(2H)-yl)butan-1-one]
The IC50 of the first is higher: 100 to 150 nM for the first, under 100 nM for the second.

`CC(CC(=O)N1CCO[C@H]2CCCCC21)c1c[nH]c2cccc(F)c12` (single isomer, unassigned) [Example 140, 3-(4-fluoro-1H-indol-3-yl)-1-[cis-(4a,8a)-octahydro-4H-1,4-benzoxazin-4-yl]butan-1-one] and `O=C(O)C1CCN(C(=O)CC(c2ccccc2)c2c[nH]c3cccc(F)c23)C2CCCCC12` (single isomer, unassigned) [Example 161, 1-[3-(4-fluoro-1H-indol-3-yl)-3-phenylpropanoyl]decahydroquinoline-4-carboxylic acid] cannot be ordered by IC50: under 100 nM for the first, under 100 nM for the second.

`CC(CC(=O)N1CCCC2CCCCC21)c1c[nH]c2ncccc12` (single isomer, unassigned) [Example 145, 1-(octahydroquinolin-1(2H)-yl)-3-(1H-pyrrolo[2,3-b]pyridin-3-yl)butan-1-one] and `O=C(CSc1c[nH]c2ccccc12)N1CCCC2CCCCC21` (centres unmarked) [Compound 5, 2-(1H-indol-3-ylsulfanyl)-1-(octahydroquinolin-1(2H)-yl)ethanone] cannot be ordered by IC50: under 100 nM for the first, under 100 nM for the second.

Going from `O=C(O)C1CCN(C(=O)CC(c2ccccc2)c2c[nH]c3cc(F)ccc23)C2CCCCC12` (single isomer, unassigned) [Example 159, 1-[3-(6-fluoro-1H-indol-3-yl)-3-phenylpropanoyl]decahydroquinoline-4-carboxylic acid] to `O=C(O)C1CCN(C(=O)CC(c2ccccc2)c2c[nH]c3cccc(F)c23)C2CCCCC12` (single isomer, unassigned) [Example 162, 1-[3-(4-fluoro-1H-indol-3-yl)-3-phenylpropanoyl]decahydroquinoline-4-carboxylic acid], the IC50 rises from under 100 nM to over 250 nM. The first is the more potent here.

First: O=C(O)C1CCN(C(=O)CC(c2ccccc2)c2c[nH]c3cc(F)ccc23)C2CCCCC12 (single isomer, unassigned) [Example 160, 1-[3-(6-fluoro-1H-indol-3-yl)-3-phenylpropanoyl]decahydroquinoline-4-carboxylic acid]
Second: CC(C)C(CC(=O)N1CCC(C(=O)O)C2CCCCC21)c1c[nH]c2cc(F)ccc12 (single isomer, unassigned) [Example 177, 1-[3-(6-fluoro-1H-indol-3-yl)-4-methylpentanoyl]decahydroquinoline-4-carboxylic acid]
The IC50 of the first is higher: over 250 nM for the first, 150 to 200 nM for the second.

First: CC(C)C(CC(=O)N1CCC(C(=O)O)C2CCCCC21)c1c[nH]c2cc(F)ccc12 (single isomer, unassigned) [Example 178, 1-[3-(6-fluoro-1H-indol-3-yl)-4-methylpentanoyl]decahydroquinoline-4-carboxylic acid]
Second: O=C(Cc1c[nH]c2ccc(F)cc12)N1CCCC2CCCCC21 (centres unmarked) [Compound 10, 2-(5-fluoro-1H-indol-3-yl)-1-(octahydroquinolin-1(2H)-yl)ethanone]
The IC50 of the first is higher: over 250 nM for the first, 100 to 150 nM for the second. The second is the more potent here.

`O=C(O)C1CCN(C(=O)CC(c2ccccc2)n2nnc3ccccc32)C2CCCCC12` (single isomer, unassigned) [Example 181, 1-[3-(1H-benzotriazol-1-yl)-3-phenylpropanoyl]decahydroquinoline-4-carboxylic acid] and `CC1CCN(C(=O)CCc2c[nH]c3ccccc23)C2CCCCC12` (centres unmarked) [Compound 12, 3-(1H-indol-3-yl)-1-(4-methyloctahydroquinolin-1(2H)-yl)propan-1-one] cannot be ordered by IC50: over 250 nM for the first, over 250 nM for the second.

Compared with `O=C(O)C1CCN(C(=O)CC(c2ccccc2)n2nnc3ccccc32)C2CCCCC12` (single isomer, unassigned) [Example 182, 1-[3-(1H-benzotriazol-1-yl)-3-phenylpropanoyl]decahydroquinoline-4-carboxylic acid], `Cn1cc(CCC(=O)N2CCCC3CCCCC32)c2ccccc21` (centres unmarked) [Compound 13, 3-(1-methyl-1H-indol-3-yl)-1-(octahydroquinolin-1(2H)-yl)propan-1-one] is lower in IC50: over 250 nM for the first, under 100 nM for the second.

First: Cn1cc(C(C)(C)C(=O)N2CCCC3CCCCC32)c2ccccc21 (centres unmarked) [Compound 2, 2-methyl-2-(1-methyl-1H-indol-3-yl)-1-(octahydroquinolin-1(2H)-yl)propan-1-one]
Second: O=C(/C=C/c1c[nH]c2ccccc12)N1CCCC2CCCCC21 (centres unmarked) [Compound 8, (2E)-3-(1H-indol-3-yl)-1-(octahydroquinolin-1(2H)-yl)prop-2-en-1-one]
The IC50 of the first is higher: over 250 nM for the first, 100 to 150 nM for the second. The second is the more potent here.

First: Cc1ccc2[nH]cc(CCC(=O)N3CCCC4CCCCC43)c2c1 (centres unmarked) [Compound 3, 3-(5-methyl-1H-indol-3-yl)-1-(octahydroquinolin-1(2H)-yl)propan-1-one]
Second: O=C(CCc1c[nH]c2ccc(F)cc12)N1CCCC2CCCCC21 (centres unmarked) [Compound 4, 3-(5-fluoro-1H-indol-3-yl)-1-(octahydroquinolin-1(2H)-yl)propan-1-one]
The IC50 of the first is higher: 150 to 200 nM for the first, 100 to 150 nM for the second. The second is the more potent here.

First: O=C(CCc1c[nH]c2ccc(Cl)cc12)N1CCCC2CCCCC21 (centres unmarked) [Compound 6, 3-(5-chloro-1H-indol-3-yl)-1-(octahydroquinolin-1(2H)-yl)propan-1-one]
Second: O=C(CCc1c[nH]c2ccc(O)cc12)N1CCCC2CCCCC21 (centres unmarked) [Compound 15, 3-(5-hydroxy-1H-indol-3-yl)-1-(octahydroquinolin-1(2H)-yl)propan-1-one]
The IC50 of the first is higher: 200 to 250 nM for the first, 100 to 150 nM for the second. The second is the more potent here.

First: COc1ccc2[nH]cc(CCC(=O)N3CCCC4CCCCC43)c2c1 (centres unmarked) [Compound 7, 3-(5-methoxy-1 fi-indol-3-yl)-1-(octahydroquinolin-1 (2H)-yl)propan-1-one]
Second: O=C(CCCc1c[nH]c2ccccc12)N1CCCC2CCCCC21 (centres unmarked) [Compound 11, 4-(1H-indol-3-yl)-1-(octahydroquinolin-1(2H)-yl)butan-1-one]
The IC50 of the first is higher: over 250 nM for the first, 100 to 150 nM for the second.

Compared with `O=C(CCc1cc2ccccc2[nH]1)N1CCCC2CCCCC21` (centres unmarked) [Compound 14, 3-(1H-indol-2-yl)-1-(octahydroquinolin-1(2H)-yl)propan-1-one], `Cc1[nH]c2ccc(F)cc2c1CCC(=O)N1CCCC2CCCCC21` (centres unmarked) [Compound 16, 3-(5-fluoro-2-methyl-1H-indol-3-yl)-1-(octahydroquinolin-1(2H)-yl)propan-1-one] is lower in IC50: over 250 nM for the first, 150 to 200 nM for the second. The second is the more potent here.
